According to ChEMBL document CHEMBL1909046, “DrugMatrix in vitro pharmacology data”:

What was measured:
[1] = DRUGMATRIX: Sodium/nucleoside co-transporter radioligand binding (ligand: nitrobenzylthioinosine); type: cell membranes, Cavia porcellus, Dunkin-Hartley, Cerebral cortex, Membrane; conditions: Not Active = under 50% inhibition at 10 µM
[2] = target: T1, Type-2 angiotensin II receptor (Homo sapiens, UniProt P50052); type: cell-based; conditions: cho-k1; also: in other assays of this panel Not Active means under 50% inhibition at 10 µM
T1 sequence (P50052 whole entry): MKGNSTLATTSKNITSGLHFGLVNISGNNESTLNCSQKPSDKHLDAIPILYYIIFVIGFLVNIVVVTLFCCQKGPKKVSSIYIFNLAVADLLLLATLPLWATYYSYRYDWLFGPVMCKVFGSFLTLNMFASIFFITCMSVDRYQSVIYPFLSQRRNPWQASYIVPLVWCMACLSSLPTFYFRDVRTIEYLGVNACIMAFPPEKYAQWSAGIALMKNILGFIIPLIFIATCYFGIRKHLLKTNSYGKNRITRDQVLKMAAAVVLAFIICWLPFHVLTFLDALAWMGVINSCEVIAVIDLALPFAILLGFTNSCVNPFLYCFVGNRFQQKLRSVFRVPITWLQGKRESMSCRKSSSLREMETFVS

[3] = DRUGMATRIX: beta-Lactamase enzyme inhibition (substrate: Nitrocefin); parameters: species or system Bacillus cereus; conditions: Not Active = under 50% inhibition at 10 µM
[4] = target: 5-hydroxytryptamine receptor 6 (Homo sapiens, UniProt P50406); type: cell membranes, HeLa, Membrane; conditions: hela; also: in other assays of this panel Not Active means under 50% inhibition at 10 µM
[5] = target: T2, Vasoactive intestinal polypeptide receptor 1 (Homo sapiens, UniProt P32241); type: cell membranes, Membrane; conditions: ht-29; also: in other assays of this panel Not Active means under 50% inhibition at 10 µM
T2 sequence (P32241 whole entry): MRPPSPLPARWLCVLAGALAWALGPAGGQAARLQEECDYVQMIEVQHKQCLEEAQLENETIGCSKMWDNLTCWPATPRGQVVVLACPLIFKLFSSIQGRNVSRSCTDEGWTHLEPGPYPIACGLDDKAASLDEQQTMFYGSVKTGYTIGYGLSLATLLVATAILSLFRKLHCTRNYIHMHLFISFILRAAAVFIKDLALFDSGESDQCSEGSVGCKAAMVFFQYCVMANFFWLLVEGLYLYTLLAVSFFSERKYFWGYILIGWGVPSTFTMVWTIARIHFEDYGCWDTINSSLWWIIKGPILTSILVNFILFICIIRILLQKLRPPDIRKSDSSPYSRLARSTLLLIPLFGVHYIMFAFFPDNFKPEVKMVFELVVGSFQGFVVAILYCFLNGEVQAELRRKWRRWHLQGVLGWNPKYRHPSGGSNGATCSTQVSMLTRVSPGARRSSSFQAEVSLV

[6] = target: Vasopressin V1a receptor (Homo sapiens, UniProt P37288); type: cell membranes, Membrane; conditions: hek293; also: in other assays of this panel Not Active means under 50% inhibition at 10 µM
[7] = target: Cannabinoid receptor 1 (Homo sapiens, UniProt P21554); type: cell membranes, Membrane; conditions: chem-1; also: in other assays of this panel Not Active means under 50% inhibition at 10 µM
[8] = target: Prostaglandin G/H synthase 1 (Homo sapiens, UniProt P23219); experiment: biochemical; type: tissue-based, Platelet; conditions: platelet
[9] = target: D(3) dopamine receptor (Homo sapiens, UniProt P35462); experiment: DRUGMATRIX: Dopamine D3 radioligand binding (ligand: [3H] Spiperone); type: cell membranes, CHO, Membrane; conditions: cho
[10] = target: T3, 3-hydroxy-3-methylglutaryl-coenzyme A reductase (Homo sapiens, UniProt P04035); parameters: species or system Escherichia coli
T3 sequence (P04035 whole entry): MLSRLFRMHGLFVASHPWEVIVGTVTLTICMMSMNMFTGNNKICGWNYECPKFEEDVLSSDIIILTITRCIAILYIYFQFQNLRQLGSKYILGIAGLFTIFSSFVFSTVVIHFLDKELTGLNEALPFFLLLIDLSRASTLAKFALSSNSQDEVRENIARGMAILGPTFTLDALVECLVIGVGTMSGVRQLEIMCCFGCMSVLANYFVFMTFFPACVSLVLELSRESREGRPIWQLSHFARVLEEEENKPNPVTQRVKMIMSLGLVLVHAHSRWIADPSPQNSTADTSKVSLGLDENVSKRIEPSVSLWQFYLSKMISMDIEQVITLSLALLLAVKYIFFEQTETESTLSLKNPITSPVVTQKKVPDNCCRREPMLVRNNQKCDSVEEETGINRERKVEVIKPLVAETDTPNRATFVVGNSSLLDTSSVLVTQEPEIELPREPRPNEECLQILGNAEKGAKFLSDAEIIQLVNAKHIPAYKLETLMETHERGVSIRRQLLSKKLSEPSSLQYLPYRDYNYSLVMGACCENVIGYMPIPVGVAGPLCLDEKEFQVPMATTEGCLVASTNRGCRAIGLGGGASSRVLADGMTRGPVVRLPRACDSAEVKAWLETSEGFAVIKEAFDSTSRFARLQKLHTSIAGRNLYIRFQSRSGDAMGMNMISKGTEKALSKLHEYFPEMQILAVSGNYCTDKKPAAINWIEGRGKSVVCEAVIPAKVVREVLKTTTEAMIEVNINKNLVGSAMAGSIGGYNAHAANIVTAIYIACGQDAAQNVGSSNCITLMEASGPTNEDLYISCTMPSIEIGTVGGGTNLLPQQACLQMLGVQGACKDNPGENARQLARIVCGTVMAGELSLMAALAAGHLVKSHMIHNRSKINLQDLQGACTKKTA

[11] = target: Nitric oxide synthase 1 (Rattus norvegicus, UniProt P29476); type: tissue-based, Cerebellum; also: in other assays of this panel Not Active means under 50% inhibition at 10 µM
[12] = target: cGMP-specific 3',5'-cyclic phosphodiesterase (Homo sapiens, UniProt O76074); experiment: DRUGMATRIX: Phosphodiesterase PDE5 enzyme inhibition (substrate: [3H]cGMP + cGMP); type: tissue-based, Platelet; conditions: platelet; Not Active = under 50% inhibition at 10 µM
[13] = target: T4, Neutrophil elastase (Homo sapiens, UniProt P08246); type: tissue-based
T4 sequence (P08246 whole entry): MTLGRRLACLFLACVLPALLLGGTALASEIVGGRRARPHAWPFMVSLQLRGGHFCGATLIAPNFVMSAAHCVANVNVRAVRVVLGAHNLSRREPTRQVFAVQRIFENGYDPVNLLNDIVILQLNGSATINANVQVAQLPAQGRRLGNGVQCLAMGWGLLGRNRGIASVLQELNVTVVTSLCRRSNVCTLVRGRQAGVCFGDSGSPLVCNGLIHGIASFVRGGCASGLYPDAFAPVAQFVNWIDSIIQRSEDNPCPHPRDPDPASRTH

[14] = target: Receptor tyrosine-protein kinase erbB-2 (Homo sapiens, UniProt P04626); experiment: biochemical; type: cell-based, Insect cells
[15] = target: 5-hydroxytryptamine receptor 1B (Rattus norvegicus, UniProt P28564); type: cell membranes, Wistar, Cerebral cortex, Membrane; also: in other assays of this panel Not Active means under 50% inhibition at 10 µM
[16] = target: Cytochrome P450 2E1 (Homo sapiens, UniProt P05181); conditions: bti-tn-5b1-4; also: in other assays of this panel Not Active means under 50% inhibition at 10 µM
Cytochrome P450 2E1, sequence (P05181 whole entry): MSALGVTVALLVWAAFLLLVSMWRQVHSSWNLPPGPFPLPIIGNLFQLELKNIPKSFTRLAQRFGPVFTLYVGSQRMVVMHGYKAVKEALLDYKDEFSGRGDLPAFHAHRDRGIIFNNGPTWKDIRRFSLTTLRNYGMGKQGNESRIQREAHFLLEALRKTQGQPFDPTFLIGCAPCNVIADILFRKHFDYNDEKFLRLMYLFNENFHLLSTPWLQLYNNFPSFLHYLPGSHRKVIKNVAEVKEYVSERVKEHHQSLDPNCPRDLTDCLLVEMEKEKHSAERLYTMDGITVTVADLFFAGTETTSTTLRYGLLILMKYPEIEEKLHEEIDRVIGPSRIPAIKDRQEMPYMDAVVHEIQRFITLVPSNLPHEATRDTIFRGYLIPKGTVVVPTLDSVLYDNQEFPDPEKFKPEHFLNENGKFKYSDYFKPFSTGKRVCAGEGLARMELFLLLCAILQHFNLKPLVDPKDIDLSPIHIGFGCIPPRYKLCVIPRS

D(3) dopamine receptor, sequence (P35462 whole entry): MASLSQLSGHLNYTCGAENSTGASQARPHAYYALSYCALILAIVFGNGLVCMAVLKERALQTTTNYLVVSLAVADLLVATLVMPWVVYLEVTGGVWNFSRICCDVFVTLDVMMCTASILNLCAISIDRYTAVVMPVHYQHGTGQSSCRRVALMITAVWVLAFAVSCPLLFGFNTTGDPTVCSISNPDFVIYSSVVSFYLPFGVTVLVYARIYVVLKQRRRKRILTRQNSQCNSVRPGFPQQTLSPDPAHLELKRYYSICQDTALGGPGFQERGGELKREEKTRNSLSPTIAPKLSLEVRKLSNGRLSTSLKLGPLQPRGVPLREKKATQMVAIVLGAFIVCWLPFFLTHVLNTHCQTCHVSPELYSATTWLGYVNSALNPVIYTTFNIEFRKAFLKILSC
Vasopressin V1a receptor, sequence (P37288 whole entry): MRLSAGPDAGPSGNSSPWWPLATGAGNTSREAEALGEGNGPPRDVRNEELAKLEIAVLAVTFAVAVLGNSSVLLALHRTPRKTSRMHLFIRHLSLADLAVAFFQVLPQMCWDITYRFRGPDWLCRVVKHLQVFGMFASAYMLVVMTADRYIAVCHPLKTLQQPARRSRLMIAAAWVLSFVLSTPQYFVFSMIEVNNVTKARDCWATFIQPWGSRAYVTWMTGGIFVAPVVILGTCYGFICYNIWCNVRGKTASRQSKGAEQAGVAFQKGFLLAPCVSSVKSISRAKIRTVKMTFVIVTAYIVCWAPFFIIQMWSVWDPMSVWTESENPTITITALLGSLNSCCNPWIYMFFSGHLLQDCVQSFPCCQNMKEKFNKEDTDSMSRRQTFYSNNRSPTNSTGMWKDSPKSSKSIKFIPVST
5-hydroxytryptamine receptor 1B, sequence (P28564 whole entry): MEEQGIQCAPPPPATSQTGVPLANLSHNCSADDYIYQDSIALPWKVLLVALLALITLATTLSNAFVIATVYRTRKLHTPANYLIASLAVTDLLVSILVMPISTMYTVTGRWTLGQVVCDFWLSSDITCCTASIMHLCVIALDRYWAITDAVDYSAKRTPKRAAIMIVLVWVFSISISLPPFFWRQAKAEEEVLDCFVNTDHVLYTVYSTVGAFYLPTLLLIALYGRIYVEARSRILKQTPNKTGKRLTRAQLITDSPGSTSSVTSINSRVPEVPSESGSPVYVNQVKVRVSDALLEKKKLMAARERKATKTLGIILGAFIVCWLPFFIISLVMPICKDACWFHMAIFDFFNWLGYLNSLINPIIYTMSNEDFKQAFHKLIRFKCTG
Prostaglandin G/H synthase 1, sequence (P23219 whole entry): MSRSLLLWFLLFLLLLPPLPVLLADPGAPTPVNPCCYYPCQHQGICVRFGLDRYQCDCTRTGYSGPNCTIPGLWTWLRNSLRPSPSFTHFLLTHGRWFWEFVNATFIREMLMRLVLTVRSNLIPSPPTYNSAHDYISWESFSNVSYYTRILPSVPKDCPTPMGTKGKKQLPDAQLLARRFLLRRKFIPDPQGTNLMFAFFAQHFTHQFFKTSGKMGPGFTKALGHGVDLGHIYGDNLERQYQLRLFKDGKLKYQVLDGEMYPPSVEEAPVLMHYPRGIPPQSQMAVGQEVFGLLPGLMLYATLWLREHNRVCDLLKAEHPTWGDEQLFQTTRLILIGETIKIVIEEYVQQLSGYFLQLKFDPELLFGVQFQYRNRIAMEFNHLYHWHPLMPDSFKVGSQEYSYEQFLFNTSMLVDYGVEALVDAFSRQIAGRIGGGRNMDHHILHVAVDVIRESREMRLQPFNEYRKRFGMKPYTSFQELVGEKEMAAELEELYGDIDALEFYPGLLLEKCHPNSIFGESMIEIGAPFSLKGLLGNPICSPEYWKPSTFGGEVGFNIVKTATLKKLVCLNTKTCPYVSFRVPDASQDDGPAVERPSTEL
5-hydroxytryptamine receptor 6, sequence (P50406 whole entry): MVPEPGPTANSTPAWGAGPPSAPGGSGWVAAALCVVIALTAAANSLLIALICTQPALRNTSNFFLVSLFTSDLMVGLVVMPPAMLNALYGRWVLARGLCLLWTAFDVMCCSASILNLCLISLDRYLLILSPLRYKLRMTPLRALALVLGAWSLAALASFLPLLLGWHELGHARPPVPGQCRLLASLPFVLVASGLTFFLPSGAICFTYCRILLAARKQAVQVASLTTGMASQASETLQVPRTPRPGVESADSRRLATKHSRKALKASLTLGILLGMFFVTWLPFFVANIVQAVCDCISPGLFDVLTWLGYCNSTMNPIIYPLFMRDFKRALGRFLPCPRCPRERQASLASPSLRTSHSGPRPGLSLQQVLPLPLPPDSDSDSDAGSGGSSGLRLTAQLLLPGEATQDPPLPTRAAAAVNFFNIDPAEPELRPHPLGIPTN
Receptor tyrosine-protein kinase erbB-2, sequence (P04626 whole entry): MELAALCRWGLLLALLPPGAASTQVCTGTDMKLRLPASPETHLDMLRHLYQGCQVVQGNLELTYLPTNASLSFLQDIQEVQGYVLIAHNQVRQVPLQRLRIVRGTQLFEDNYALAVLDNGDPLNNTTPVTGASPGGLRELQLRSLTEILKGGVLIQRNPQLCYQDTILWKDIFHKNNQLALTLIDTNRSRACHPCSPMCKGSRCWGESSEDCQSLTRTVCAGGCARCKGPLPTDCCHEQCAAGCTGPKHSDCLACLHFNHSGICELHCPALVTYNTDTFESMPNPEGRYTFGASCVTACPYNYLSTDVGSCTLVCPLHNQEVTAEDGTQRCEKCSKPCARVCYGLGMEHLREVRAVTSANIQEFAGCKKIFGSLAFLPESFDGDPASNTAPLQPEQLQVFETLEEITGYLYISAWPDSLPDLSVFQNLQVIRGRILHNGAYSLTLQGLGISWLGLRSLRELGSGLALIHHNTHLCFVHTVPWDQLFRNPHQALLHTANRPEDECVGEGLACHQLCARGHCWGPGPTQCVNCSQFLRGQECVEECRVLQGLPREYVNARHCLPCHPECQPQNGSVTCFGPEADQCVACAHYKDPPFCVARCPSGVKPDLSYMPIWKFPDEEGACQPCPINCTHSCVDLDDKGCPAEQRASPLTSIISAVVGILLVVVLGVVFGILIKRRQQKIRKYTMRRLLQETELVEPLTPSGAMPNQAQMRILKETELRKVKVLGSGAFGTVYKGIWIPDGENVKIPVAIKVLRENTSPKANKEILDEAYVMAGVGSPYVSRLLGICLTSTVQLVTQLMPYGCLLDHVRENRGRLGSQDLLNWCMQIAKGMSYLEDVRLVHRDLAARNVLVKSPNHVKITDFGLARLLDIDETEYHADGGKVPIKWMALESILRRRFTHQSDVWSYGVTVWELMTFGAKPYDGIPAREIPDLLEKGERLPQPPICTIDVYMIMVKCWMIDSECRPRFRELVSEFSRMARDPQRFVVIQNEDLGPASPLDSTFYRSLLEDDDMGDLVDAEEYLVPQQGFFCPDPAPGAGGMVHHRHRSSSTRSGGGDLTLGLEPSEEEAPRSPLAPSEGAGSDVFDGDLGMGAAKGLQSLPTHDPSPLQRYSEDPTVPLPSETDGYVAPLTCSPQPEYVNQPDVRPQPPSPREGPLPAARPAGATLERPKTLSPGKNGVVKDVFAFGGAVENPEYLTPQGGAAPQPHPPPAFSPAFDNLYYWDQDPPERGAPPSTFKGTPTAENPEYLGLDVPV
Cannabinoid receptor 1, sequence (P21554 whole entry): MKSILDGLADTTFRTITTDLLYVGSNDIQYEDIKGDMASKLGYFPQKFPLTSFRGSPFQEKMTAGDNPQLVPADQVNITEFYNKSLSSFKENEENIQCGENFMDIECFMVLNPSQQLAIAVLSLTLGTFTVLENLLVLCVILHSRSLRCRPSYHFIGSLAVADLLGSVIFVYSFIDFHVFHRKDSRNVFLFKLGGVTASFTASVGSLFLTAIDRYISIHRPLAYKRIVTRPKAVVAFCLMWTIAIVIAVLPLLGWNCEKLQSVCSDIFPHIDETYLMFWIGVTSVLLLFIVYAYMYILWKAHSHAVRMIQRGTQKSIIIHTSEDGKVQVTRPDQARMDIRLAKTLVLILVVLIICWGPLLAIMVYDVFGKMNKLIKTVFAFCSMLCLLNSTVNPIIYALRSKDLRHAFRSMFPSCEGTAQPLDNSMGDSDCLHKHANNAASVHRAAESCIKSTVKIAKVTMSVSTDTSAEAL

CCOC(=O)[C@H](CCc1ccccc1)N[C@@H](C)C(=O)N1[C@H](C(=O)O)C[C@@H]2CCC[C@@H]21
Not Active: IC50 [1] | Ki [1] | IC50 [2] | IC50 [3] | Ki [3] | IC50 [4] | IC50 [5] | IC50 [6] | IC50 [7] | IC50 [8] | IC50 [9] | IC50 [10] | IC50 [11] | IC50 [12] | IC50 [13] | IC50 ([14]; insect cells) | IC50 [15] | IC50 [16] | Ki [16]

CC(C)(C)NC(=O)[C@@H]1CN(Cc2cccnc2)CCN1C[C@@H](O)C[C@@H](Cc1ccccc1)C(=O)N[C@H]1c2ccccc2C[C@H]1O.O
Not Active: IC50 [1] | Ki [1] | IC50 [2] | IC50 [3] | Ki [3] | IC50 [4] | IC50 [5] | IC50 [6] | IC50 [7] | IC50 [8] | IC50 [9] | IC50 [10] | IC50 [11] | IC50 [12] | IC50 [13] | IC50 ([14]; insect cells) | IC50 [15] | IC50 [16] | Ki [16]

CC1(C)[C@H]2CC[C@]1(C)C(=O)C2 [(-)-CAMPHOR]
Not Active: IC50 [1] | Ki [1] | IC50 [2] | IC50 [3] | Ki [3] | IC50 [4] | IC50 [5] | IC50 [6] | IC50 [7] | IC50 [8] | IC50 [9] | IC50 [10] | IC50 [11] | IC50 [12] | IC50 [13] | IC50 ([14]; insect cells) | IC50 [15] | IC50 [16] | Ki [16]

CC(C)(C)NCC(O)c1ccc(O)c(CO)c1 (stereo not drawn) [ALBUTEROL]
Not Active: IC50 [1] | Ki [1] | IC50 [2] | IC50 [3] | Ki [3] | IC50 [4] | IC50 [5] | IC50 [6] | IC50 [7] | IC50 [8] | IC50 [9] | IC50 [10] | IC50 [11] | IC50 [12] | IC50 [13] | IC50 ([14]; insect cells) | IC50 [15] | IC50 [16] | Ki [16]

Oc1c(I)cc(I)c2cccnc12 [IODOQUINOL]
8.58 µM: IC50 ([14]; read-out: IC50)
Not Active: IC50 [1] | Ki [1] | IC50 [2] | IC50 [3] | Ki [3] | IC50 [4] | IC50 [5] | IC50 [6] | IC50 [7] | IC50 [8] | IC50 [9] | IC50 [10] | IC50 [11] | IC50 [12] | IC50 [13] | IC50 [15] | IC50 [16] | Ki [16]

NNC(=O)c1ccncc1 [ISONIAZID]
Not Active: IC50 [1] | Ki [1] | IC50 [2] | IC50 [3] | Ki [3] | IC50 [4] | IC50 [5] | IC50 [6] | IC50 [7] | IC50 [8] | IC50 [9] | IC50 [10] | IC50 [11] | IC50 [12] | IC50 [13] | IC50 ([14]; insect cells) | IC50 [15] | IC50 [16] | Ki [16]

COC(=O)C1=C(C)NC(C)=C(C(=O)OC)C1c1ccccc1[N+](=O)[O-] [NIFEDIPINE]
23.8 µM: IC50 ([1]; read-out: IC50)
8.15 µM: Ki ([1]; read-out: Ki)
Not Active: IC50 [2] | IC50 [3] | Ki [3] | IC50 [4] | IC50 [5] | IC50 [6] | IC50 [7] | IC50 [8] | IC50 [9] | IC50 [10] | IC50 [11] | IC50 [12] | IC50 [13] | IC50 ([14]; insect cells) | IC50 [15]

CN[C@@H]1[C@@H](O)[C@@H](O[C@@H]2[C@@H](O)[C@H](O[C@H]3OC(CN)=CC[C@H]3N)[C@@H](N)C[C@H]2N)OC[C@]1(C)O [SISOMICIN]
Not Active: IC50 [1] | Ki [1] | IC50 [2] | IC50 [3] | Ki [3] | IC50 [4] | IC50 [5] | IC50 [6] | IC50 [7] | IC50 [8] | IC50 [9] | IC50 [10] | IC50 [11] | IC50 [12] | IC50 [13] | IC50 ([14]; insect cells) | IC50 [15]
